Experiments:
Assay type in all cases: cell-based
[1] = test system: barley cv Igri isolated microspores; test: AGP effect on barley isolated microspore development in liquid FHG medium; conditions: after 10 days
Description: The effect of AGP concentration during embryogenic induction of barley microspores in culture was examined. A wide range of concentrations was applied to microspores […]. The AGP addition was effected by adding varying AGP concentrations in liquid FHG medium with 10^5 microspores onto solid FGH medium. Using a drop of microspores on solidified MFHG medium, structures were counted under an inverted microscope. The proportion of alive and dead microspores was not estimated in these plates, but the developing microspores were much higher in the 0 mg control compared to wheat. Thus, the difference in response of barley to AGP at day 10 is not as pronounced as in wheat.

[2] = test system: wheat microspores cv Pavon 79; test: Regeneration of plants from wheat microspores with AGP in induction media MMS4; conditions: for # of plants Albino / # of plants Total / # of plants green / % of green plants / % of regen.: 250 embryos transferred to regeneration medium; for Total # of embryos: induction media MMS4, cv Pavon 79
Protocol: The effect of AGP on embryogenesis and plant regeneration was assessed in wheat microspores which were isolated from genotype Pavon 79 according to the method of the present invention. AGP levels of 0, 1, 5, and 10 mg/liter were tested. […] Additionally, the data illustrates the presence of ovaries in co-culture enhanced embryogenesis and plant regeneration. Only at 10 mg/liter of AGP was significant embryogenesis observed in the absence of ovary co-culture. FIG. 5(a) illustrates the comparative response of wheat microspores to the presence or absence of wheat ovaries and 0 or 10 mg/L AGP. FIG. 6 illustrates the good embryo structure developed in wheat after 4 weeks on medium with ovaries and AGP.

[3] = test system: wheat (cv. Pavon 76) microspores; test: Influence of regeneration media on plant development from wheat microspores; conditions: AGP in regeneration media
Protocol: A comparison of regeneration media composition was conducted for wheat microspores induced on a medium in the presence and absence AGP. The regeneration medium was based on MMS4 medium having either 3% sucrose or 9% maltose as a sugar source, or in an AGP-containing medium based on MMS4 with 9% maltose. The microspores were either induced on a support, in this case, a Watman #2 filter disk, or were placed on a solid media in liquid drops. […] Sucrose within the regeneration media was effective in producing a high percentage of green plants, however maltose was also found to be effective. Without wishing to be bound by theory, this may be due to the quicker release of energy from sucrose that is required for regeneration.

[4] = test system: spring wheat Pavon 79 microspores; test: AGP concentrations in microspore culture in MMS4 liquid media; conditions: for # at Day 12 Alive / # at Day 12 Dead / # at Day 12 Dividing / # at Day 12 ELS / # at Day 12 Multicellular / # at Day 12 Total Developing / Day 50 # of embryos: 4 rep average
Protocol: In an experiment with Pavon 79, concentrations of 0, 10, 25, 50, 100, 500 and 1000 mg/L were used in microspore culture with 4 ovaries around a drop of liquid medium with microspores on top of solidified medium. […] However, higher concentrations can also be used. […] It was observed that 10 to 14 days in induction medium with AGP may be maximal as it appears that regeneration may be reduced with longer periods on medium with AGP.

## arabinogalactan protein [AGP]
[1]; AGP 2 mg/L
  Dividing within microspore: 39600
  Free Multicellulars: 33550
  Total Developing: 73150
[1]; AGP 5 mg/L
  Dividing within microspore: 43000
  Free Multicellulars: 38230
  Total Developing: 81230
[1]; AGP 10 mg/L
  Dividing within microspore: 45280
  Free Multicellulars: 35750
  Total Developing: 81030
[1]; AGP 25 mg/L
  Dividing within microspore: 39880
  Free Multicellulars: 36030
  Total Developing: 75910
[1]; AGP 50 mg/L
  Dividing within microspore: 37120
  Free Multicellulars: 39880
  Total Developing: 77000
[1]; AGP 100 mg/L
  Dividing within microspore: 42900
  Free Multicellulars: 37730
  Total Developing: 80630
[1]; AGP 500 mg/L
  Dividing within microspore: 35890
  Free Multicellulars: 37810
  Total Developing: 73700
[1]; AGP 1000 mg/L
  Dividing within microspore: 38500
  Free Multicellulars: 41600
  Total Developing: 80100
[2]; AGP 1 mg/L with ovaries
  # of plants Albino: 70
  # of plants Total: 118
  # of plants green: 48
  % of green plants: 41%
  % of regen.: 47%
  Total # of embryos: 2130
[2]; AGP 5 mg/L with ovaries
  # of plants Albino: 70
  # of plants Total: 120
  # of plants green: 50
  % of green plants: 42%
  % of regen.: 48%
  Total # of embryos: 3393
[2]; AGP 10 mg/L with ovaries
  # of plants Albino: 60
  # of plants Total: 189
  # of plants green: 129
  % of green plants: 68%
  % of regen.: 76%
  Total # of embryos: 4250
[2]; addition of 10 mg/L of AGP, genotype Pavon 79
  embryogenesis, regeneration and % green plant production: significant improvement
[3]
  effect of addition of AGP to the regeneration media on green plants: reduced the number of green plants produced
[4]; AGP 10 mg/L
  # at Day 12 Alive: 69.3
  # at Day 12 Dead: 58.9
  # at Day 12 Dividing: 23.9
  # at Day 12 ELS: 8.7
  # at Day 12 Multicellular: 33.8
  # at Day 12 Total Developing: 66.4
  Day 50 # of embryos: 4493
[4]; AGP 25 mg/L
  # at Day 12 Alive: 66.6
  # at Day 12 Dead: 69.3
  # at Day 12 Dividing: 13.6
  # at Day 12 ELS: 10.3
  # at Day 12 Multicellular: 38
  # at Day 12 Total Developing: 61.9
  Day 50 # of embryos: 3538
[4]; AGP 50 mg/L
  # at Day 12 Alive: 47.9
  # at Day 12 Dead: 75
  # at Day 12 Dividing: 10.7
  # at Day 12 ELS: 5
  # at Day 12 Multicellular: 13.2
  # at Day 12 Total Developing: 28.9
  Day 50 # of embryos: 471
[4]; AGP 100 mg/L
  # at Day 12 Alive: 66.4
  # at Day 12 Dead: 61
  # at Day 12 Dividing: 17.3
  # at Day 12 ELS: 2.9
  # at Day 12 Multicellular: 32.2
  # at Day 12 Total Developing: 52.4
  Day 50 # of embryos: 3709
[4]; AGP 500 mg/L
  # at Day 12 Alive: 57.3
  # at Day 12 Dead: 61
  # at Day 12 Dividing: 19.4
  # at Day 12 ELS: 4.5
  # at Day 12 Multicellular: 27.7
  # at Day 12 Total Developing: 51.6
  Day 50 # of embryos: 3267
[4]; AGP 1000 mg/L
  # at Day 12 Alive: 69.3
  # at Day 12 Dead: 56
  # at Day 12 Dividing: 14.8
  # at Day 12 ELS: 7
  # at Day 12 Multicellular: 28.5
  # at Day 12 Total Developing: 50.3
  Day 50 # of embryos: 1821
[4]; AGP 10-1000 mg/L, Pavon 79
  microspore viability at day 12 versus control with no AGP: not significantly different from the control value
[4]; AGP concentrations of 10 or 25 mg/liter
  embryogenesis across AGP concentrations: optimal embryogenesis
[4]; in the presence of AGP, day 12, Pavon 79
  total number of developing structures: improved

From US6812028B1, “Embryogenesis and plant regeneration from microspores” (University of Guelph, priority 1999, dated 2004)
